pIC50: −log10 of the molar value. Activity calls are given as the source filed them. The calls are words filed in the database; no cut-off is given here.
How the values were obtained:
HeLa = experiment: Antiproliferative activity against human HeLa cells incubated for 72 hrs measured by MTT assay; assay type: functional, cell-based
MDA-MB-231 = experiment: Antiproliferative activity against human MDA-MB-231 cells incubated for 72 hrs measured by MTT assay; assay type: functional, cell-based; conditions: MDA-MB-231, 72 h
A-375 [1] = experiment: Effect cycle arrest in human A-375 cells assessed as accumulation of cells in G2/M phase at 1 uM measured by flow cytometric analysis (reference value: 26.76%); assay type: functional
A-375 [2] = experiment: Effect on mitotic progression in human A-375 cells assessed as mitotic index at 0.5 uM measured by flow cytometric analysis (reference value: 3.22%); assay type: functional
A-375 [3] = experiment: Induction of apoptosis in human A-375 cells assessed as early apoptotic cells at 0.5 uM measured by annexin V/PI based flow cytometric analysis (reference value: 9.78%); assay type: functional
A-375 [4] = experiment: Induction of apoptosis in human A-375 cells assessed as early apoptotic cells at 1 uM measured by annexin V/PI based flow cytometric analysis (reference value: 9.78%); assay type: functional
[5] = molecular target: T1, Aurora kinase A (Homo sapiens) (UniProt O14965); experiment: Inhibition of Aurora A (unknown origin) assessed as downregulation of kinase phosphorylation at 0.5 to 2 uM by Western blot analysis; conditions: dose 0.5-2 µM
T1 sequence (whole entry): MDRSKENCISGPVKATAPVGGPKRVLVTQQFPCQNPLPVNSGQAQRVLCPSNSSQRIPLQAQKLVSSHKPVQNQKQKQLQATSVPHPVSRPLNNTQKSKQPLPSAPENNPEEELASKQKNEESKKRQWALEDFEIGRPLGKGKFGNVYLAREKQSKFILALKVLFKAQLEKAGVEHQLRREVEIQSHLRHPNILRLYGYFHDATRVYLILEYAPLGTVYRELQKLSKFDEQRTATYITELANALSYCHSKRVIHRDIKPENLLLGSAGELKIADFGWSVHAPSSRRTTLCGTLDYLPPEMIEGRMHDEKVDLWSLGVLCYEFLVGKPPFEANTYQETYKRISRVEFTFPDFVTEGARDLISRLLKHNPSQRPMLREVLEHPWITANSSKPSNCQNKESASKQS

HepG2 = experiment: Antiproliferative activity against human HepG2 cells incubated for 72 hrs measured by MTT assay; assay type: functional, cell-based; conditions: HepG2, 72 h
HCT-116 = experiment: Antiproliferative activity against human HCT-116 cells incubated for 72 hrs measured by MTT assay; assay type: functional, cell-based; conditions: HCT-116, 72 h
A-375 [6] = experiment: Antiproliferative activity against human A-375 cells incubated for 72 hrs measured by MTT assay; assay type: functional, cell-based; conditions: A-375, 72 h
[7] = Cytotoxicity against human BEAS-2B cells incubated for 72 hrs measured by MTT assay; assay type: toxicity, cell-based
A-375 [8] = experiment: Effect cycle arrest in human A-375 cells assessed as accumulation of cells in G2/M phase at 0.5 uM measured by flow cytometric analysis (reference value: 26.76%); assay type: functional
A-375 [9] = experiment: Induction of apoptosis in human A-375 cells assessed as late apoptotic cells at 2 uM measured by annexin V/PI based flow cytometric analysis (reference value: 1.07%); assay type: functional
Aurora kinase B = Aurora kinase B (Homo sapiens, UniProt Q96GD4); experiment: Inhibition of Aurora B (unknown origin) incubated for 1 hr by microplate reader analysis
Sequence of Aurora kinase B (Q96GD4 whole entry): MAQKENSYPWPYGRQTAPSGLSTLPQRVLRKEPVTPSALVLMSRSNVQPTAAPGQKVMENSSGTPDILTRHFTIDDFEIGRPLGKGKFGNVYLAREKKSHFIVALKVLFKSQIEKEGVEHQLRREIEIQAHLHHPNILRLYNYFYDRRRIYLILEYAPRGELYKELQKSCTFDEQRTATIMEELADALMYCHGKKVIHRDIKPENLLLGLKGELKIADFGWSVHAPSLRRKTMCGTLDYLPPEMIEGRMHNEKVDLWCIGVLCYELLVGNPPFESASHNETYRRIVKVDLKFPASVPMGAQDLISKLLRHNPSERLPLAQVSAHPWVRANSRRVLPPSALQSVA

Aurora kinase A = molecular target: T2, Aurora kinase A (Homo sapiens, UniProt O14965); experiment: Inhibition of Aurora A (unknown origin) incubated for 1 hr by microplate reader analysis
T2 sequence (O14965 whole entry): T1 sequence (whole entry)

A-375 [10] = experiment: Effect cycle arrest in human A-375 cells assessed as accumulation of cells in G2/M phase at 2 uM measured by flow cytometric analysis (reference value: 26.76%); assay type: functional
A-375 [11] = experiment: Effect on mitotic progression in human A-375 cells assessed as mitotic index at 1 uM measured by flow cytometric analysis (reference value: 3.22%); assay type: functional
A-375 [12] = experiment: Induction of apoptosis in human A-375 cells assessed as apoptotic cells at 2 uM measured by annexin V/PI based flow cytometric analysis (reference value: 10.8%); assay type: functional
Aurora kinase C = molecular target: T3, Aurora kinase C (Homo sapiens, UniProt Q9UQB9); experiment: Inhibition of Aurora C (unknown origin) incubated for 1 hr by microplate reader analysis
T3 sequence (Q9UQB9 whole entry): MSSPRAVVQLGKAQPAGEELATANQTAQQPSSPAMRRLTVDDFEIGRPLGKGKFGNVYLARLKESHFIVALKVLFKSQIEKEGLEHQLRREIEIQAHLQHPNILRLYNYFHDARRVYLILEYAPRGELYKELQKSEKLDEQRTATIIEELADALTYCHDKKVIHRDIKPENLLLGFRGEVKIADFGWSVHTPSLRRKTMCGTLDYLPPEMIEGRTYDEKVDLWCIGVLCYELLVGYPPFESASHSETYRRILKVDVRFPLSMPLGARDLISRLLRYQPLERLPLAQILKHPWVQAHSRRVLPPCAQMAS

A-375 [13] = experiment: Induction of apoptosis in human A-375 cells assessed as late apoptotic cells at 1 uM measured by annexin V/PI based flow cytometric analysis (reference value: 1.07%); assay type: functional
A-375 [14] = experiment: Induction of apoptosis in human A-375 cells assessed as apoptotic cells at 1 uM measured by annexin V/PI based flow cytometric analysis (reference value: 10.8%); assay type: functional
A-375 [15] = experiment: Induction of apoptosis in human A-375 cells assessed as early apoptotic cells at 2 uM measured by annexin V/PI based flow cytometric analysis (reference value: 9.78%); assay type: functional
PC-3 = experiment: Antiproliferative activity against human PC-3 cells incubated for 72 hrs measured by MTT assay; assay type: functional, cell-based; conditions: PC-3, 72 h
A-375 [16] = experiment: Induction of apoptosis in human A-375 cells assessed as apoptotic cells at 0.5 uM measured by annexin V/PI based flow cytometric analysis (reference value: 10.8%); assay type: functional
A-375 [17] = experiment: Induction of apoptosis in human A-375 cells assessed as late apoptotic cells at 0.5 uM measured by annexin V/PI based flow cytometric analysis (reference value: 1.07%); assay type: functional
MIA PaCa-2 = experiment: Antiproliferative activity against human MIA PaCa-2 cells incubated for 72 hrs measured by MTT assay; assay type: functional, cell-based; conditions: MIA PaCa-2, 72 h
A549 = experiment: Antiproliferative activity against human A549 cells incubated for 72 hrs measured by MTT assay; assay type: functional, cell-based; conditions: A549, 72 h
A-375 [18] = experiment: Effect on mitotic progression in human A-375 cells assessed as mitotic index at 2 uM measured by flow cytometric analysis (reference value: 3.22%); assay type: functional

Work on `CCOc1ccc([C@H]2[C@](C)([N+](=O)[O-])[C@H](c3ccccc3)N[C@]2(C)C(=O)OC)cc1` yielded a pIC50 (HeLa) of 6.02, a pIC50 (MDA-MB-231) of 6.37 and an Activity (A-375 [1]) of 54.46%. It also gave an Activity (A-375 [2]) of 6.24%, an Activity (A-375 [3]) of 13.5% and an Activity (A-375 [4]) of 20.4%. For the same compound, the inhibition [5] was “Active”, the pIC50 (HepG2) was 5.78 and the pIC50 (HCT-116) was 6.14. It also gave a pIC50 (A-375 [6]) of 6.62, an IC50 at 72 h [7] greater than 100 µM and an Activity (A-375 [8]) of 32.73%. The Activity (A-375 [9]) was 17.8%, the IC50 (Aurora kinase B) was “Not Active” and the pIC50 (Aurora kinase A) was 6.55. It also gave an Activity (A-375 [10]) of 68.69%, an Activity (A-375 [11]) of 10.82% and an Activity (A-375 [12]) of 37.6%. The IC50 (Aurora kinase C) was “Not Active”, the Activity (A-375 [13]) was 14.6% and the Activity (A-375 [14]) was 35%. The Activity (A-375 [15]) was 19.8%, the pIC50 (PC-3) was 6.40 and the Activity (A-375 [16]) was 22.7%. The Activity (A-375 [17]) was 9.23%, the pIC50 (MIA PaCa-2) was 5.97 and the pIC50 (A549) was 6.29. The Activity (A-375 [18]) was 18.51%.
`CCOc1ccc([C@H]2[C@H](C(=O)OC)N[C@H](c3ccccc3)[C@]2(C)[N+](=O)[O-])cc1` gave a pIC50 (HeLa) of less than 4.00, a pIC50 (MDA-MB-231) of less than 4.00 and a pIC50 (HepG2) of less than 4.00. It also gave a pIC50 (HCT-116) of less than 4.00, a pIC50 (A-375 [6]) of less than 4.00 and an IC50 at 72 h [7] greater than 100 µM. The pIC50 (PC-3) was less than 4.00, the pIC50 (MIA PaCa-2) was less than 4.00 and the pIC50 (A549) was less than 4.00.
For `CCOc1ccc([C@H]2[C@H]([N+](=O)[O-])[C@H](c3ccccc3)N[C@]2(C)C(=O)OC)cc1`, the pIC50 (HeLa) was less than 4.00, the pIC50 (MDA-MB-231) was less than 4.00 and the pIC50 (HepG2) was less than 4.00. For the same compound, the pIC50 (HCT-116) was less than 4.00, the pIC50 (A-375 [6]) was less than 4.00 and the IC50 at 72 h [7] was greater than 100 µM. The pIC50 (PC-3) was less than 4.00, the pIC50 (MIA PaCa-2) was less than 4.00 and the pIC50 (A549) was less than 4.00.
Compound `CCOc1ccc([C@@H]2[C@@H]([N+](=O)[O-])[C@@H](c3ccccc3)N[C@H]2C(=O)OC)cc1` has a pIC50 (HeLa) of less than 4.00, a pIC50 (MDA-MB-231) of less than 4.00 and a pIC50 (HepG2) of less than 4.00. The pIC50 (HCT-116) was less than 4.00, the pIC50 (A-375 [6]) was less than 4.00 and the IC50 at 72 h [7] was greater than 100 µM. For the same compound, the pIC50 (PC-3) was less than 4.00, the pIC50 (MIA PaCa-2) was less than 4.00 and the pIC50 (A549) was less than 4.00.
In the case of `CCOc1ccc([C@@H]2[C@@H](C(=O)OC)N[C@@H](c3ccccc3)[C@@]2(C)[N+](=O)[O-])cc1`, the pIC50 (HeLa) was 4.78, the pIC50 (MDA-MB-231) was 4.77 and the pIC50 (HepG2) was 4.54. For the same compound, the pIC50 (HCT-116) was 4.91, the pIC50 (A-375 [6]) was 5.13 and the IC50 at 72 h [7] was greater than 100 µM. It also gave a pIC50 (PC-3) of 4.85, a pIC50 (MIA PaCa-2) of 4.67 and a pIC50 (A549) of 4.94.
Work on `CCOc1ccc([C@@H]2[C@@](C)([N+](=O)[O-])[C@@H](c3ccccc3)N[C@@]2(C)C(=O)OC)cc1` yielded a pIC50 (HeLa) of 4.08, a pIC50 (MDA-MB-231) of 4.46 and a pIC50 (HepG2) of less than 4.00. For the same compound, the pIC50 (HCT-116) was 4.13, the pIC50 (A-375 [6]) was 4.57 and the IC50 at 72 h [7] was greater than 100 µM. The pIC50 (PC-3) was 4.49, the pIC50 (MIA PaCa-2) was less than 4.00 and the pIC50 (A549) was 4.31.
Compound `CCOc1ccc([C@@H]2[C@@H]([N+](=O)[O-])[C@@H](c3ccccc3)N[C@@]2(C)C(=O)OC)cc1` has a pIC50 (HeLa) of less than 4.00, a pIC50 (MDA-MB-231) of less than 4.00 and a pIC50 (HepG2) of less than 4.00. It also gave a pIC50 (HCT-116) of less than 4.00, a pIC50 (A-375 [6]) of less than 4.00 and an IC50 at 72 h [7] greater than 100 µM. For the same compound, the pIC50 (PC-3) was less than 4.00, the pIC50 (MIA PaCa-2) was less than 4.00 and the pIC50 (A549) was less than 4.00.
`CCOc1ccc([C@H]2[C@H]([N+](=O)[O-])[C@H](c3ccccc3)N[C@@H]2C(=O)OC)cc1` showed a pIC50 (HeLa) of less than 4.00, a pIC50 (MDA-MB-231) of less than 4.00 and a pIC50 (HepG2) of less than 4.00. The pIC50 (HCT-116) was less than 4.00, the pIC50 (A-375 [6]) was less than 4.00 and the IC50 at 72 h [7] was greater than 100 µM. For the same compound, the pIC50 (PC-3) was less than 4.00, the pIC50 (MIA PaCa-2) was less than 4.00 and the pIC50 (A549) was less than 4.00.

From ChEMBL document CHEMBL5346957, “Enantioselective Synthesis and Biological Evaluation of Pyrrolidines Bearing Quaternary Stereogenic Centers” (J Med Chem, 2023)
